Where two headings read alike, the source gives them in different places.

The test system of test [1] is MV4;11 cells. The test can be described thus: Cell viability assay (CellTiter-Glo) in MV4;11 cells, alone or with gilteritinib. It counts as cell-based. Particulars: Homo sapiens, MV4-11, 72 h, MV4;11 cells, three days, CellTiter-Glo, read-out: MV4. In general terms: In ATP-based viability assays light output follows the ATP content of the culture.
In test [2] the test system is MOLM-13 cells. In words: Cell viability assay (CellTiter-Glo) in MOLM-13 cells, alone or with gilteritinib. It counts as cell-based. Particulars: Homo sapiens, MOLM-13, 72 h, MOLM-13 cells, three days, CellTiter-Glo.
Setting [3] is: compound alone (without gilteritinib), 11 IC50.
The mark [4] stands for this setting: with gilteritinib 10 nM, 11 IC50 gilteritinib.
Where [5] appears, read: compound alone (without gilteritinib), read-out: MOLM-13 IC50.
[6] abbreviates: with gilteritinib 20 nM, read-out: MOLM-13 IC50 gilteritinib.

For `O=C1CCC(N2C(=O)c3ccc(NCCC[C@H]4C[C@H](n5cc(-c6cnc7ccc(N8CC9CCC(C8)N9)cc7n6)cn5)C4)cc3C2=O)C(=O)N1` (stereo partly drawn) [GS-215, 5-((3-(trans-3-(4-(7-(3,8-Diazabicyclo[3.2.1]octan-3-yl)quinoxalin-2-yl)-1H-pyrazol-1-yl)cyclobutyl)propyl)amino)-2-(2,6-dioxopiperidin-3-yl)isoindoline-1,3-dione], the IC50 is 0.1 to 1 µM in test [1] (setting [3]), 0.01 to 0.1 µM in test [1] (setting [4]), 0.1 to 1 µM in test [2] (setting [5]) and less than 0.01 µM in test [2] (setting [6]).
With `O=C1CCC(N2C(=O)c3ccc(NC[C@H]4C[C@H](n5cc(-c6cccc(N7CCOCC7)n6)cn5)C4)cc3C2=O)C(=O)N1` (stereo partly drawn) [GS-216, 2-(2,6-Dioxopiperidin-3-yl)-5-(((trans-3-(4-(6-morpholinopyridin-2-yl)-1H-pyrazol-1-yl)cyclobutyl)methyl)amino)isoindoline-1,3-dione], the IC50 in test [1] (setting [3]) is 0.1 to 1 µM; in test [1] (setting [4]), more than 1 µM; in test [2] (setting [5]) it was more than 1 µM; in test [2] (setting [6]), more than 1 µM.
As to `O=C1CCC(N2C(=O)c3ccc(NCCC[C@H]4C[C@H](n5cc(-c6cccc(N7CCOCC7)n6)cn5)C4)cc3C2=O)C(=O)N1` (stereo partly drawn) [GS-217, 2-(2,6-Dioxopiperidin-3-yl)-5-((3-(trans-3-(4-(6-morpholinopyridin-2-yl)-1H-pyrazol-1-yl)cyclobutyl)propyl)amino)isoindoline-1,3-dione], the IC50 in test [1] (setting [3]) is 0.01 to 0.1 µM; in test [1] (setting [4]) it was less than 0.01 µM; in test [2] (setting [5]), 0.1 to 1 µM; in test [2] (setting [6]) it was less than 0.01 µM.
Take `O=C1CCC(N2C(=O)c3ccc(NC[C@H]4C[C@H](n5cc(-c6cccc(NC7CCOCC7)n6)cn5)C4)cc3C2=O)C(=O)N1` (stereo partly drawn) [GS-218, 2-(2,6-Dioxopiperidin-3-yl)-5-(((trans-3-(4-(6-((tetrahydro-2H-pyran-4-yl)amino)pyridin-2-yl)-1H-pyrazol-1-yl)cyclobutyl)methyl)amino)isoindoline-1,3-dione]: the IC50 was 0.1 to 1 µM in test [1] (setting [3]), 0.01 to 0.1 µM in test [1] (setting [4]), 0.1 to 1 µM in test [2] (setting [5]) and 0.01 to 0.1 µM in test [2] (setting [6]).
For the molecule `O=C1CCC(N2C(=O)c3ccc(NCCC[C@H]4C[C@H](n5cc(-c6cnc7c(Cl)cccc7n6)cn5)C4)cc3C2=O)C(=O)N1` (stereo partly drawn) [GS-219, 5-((3-(trans-3-(4-(5-Chloroquinoxalin-2-yl)-1H-pyrazol-1-yl)cyclobutyl)propyl)amino)-2-(2,6-dioxopiperidin-3-yl)isoindoline-1,3-dione], the IC50 in test [1] (setting [3]) is 0.1 to 1 µM; in test [1] (setting [4]), 0.01 to 0.1 µM; in test [2] (setting [5]), more than 1 µM; in test [2] (setting [6]), 0.01 to 0.1 µM.
Regarding `O=C1CCC(N2C(=O)c3ccc(NCCC[C@H]4C[C@H](n5cc(-c6cnc7ccc(N8CCNC9(CC9)C8)cc7n6)cn5)C4)cc3C2=O)C(=O)N1` (stereo partly drawn) [GS-220, 5-((3-(trans-3-(4-(7-(4,7-Diazaspiro[2.5]octan-7-yl)quinoxalin-2-yl)-1H-pyrazol-1-yl)cyclobutyl)propyl)amino)-2-(2,6-dioxopiperidin-3-yl)isoindoline-1,3-dione], the IC50 was more than 1 µM in test [1] (setting [3]), 0.1 to 1 µM in test [1] (setting [4]), more than 1 µM in test [2] (setting [5]) and 0.1 to 1 µM in test [2] (setting [6]).
As for `Cc1nn([C@H]2C[C@@H](CCCNc3ccc4c(c3)C(=O)N(C3CCC(=O)NC3=O)C4=O)C2)cc1-c1cnc2ccc(N3CCOCC3)cc2n1` (stereo partly drawn) [GS-221, 2-(2,6-Dioxopiperidin-3-yl)-5-((3-(cis-3-(3-methyl-4-(7-morpholinoquinoxalin-2-yl)-1H-pyrazol-1-yl)cyclobutyl)propyl)amino)isoindoline-1,3-dione], the IC50 in test [1] (setting [3]), in test [1] (setting [4]), in test [2] (setting [5]) and in test [2] (setting [6]) was less than 0.01 µM throughout.
`O=C1CCC(N2C(=O)c3ccc(NCCC[C@H]4C[C@H](n5cc(-c6cccc(NC7CCOCC7)n6)cn5)C4)cc3C2=O)C(=O)N1` (stereo partly drawn) [GS-222, 2-(2,6-Dioxopiperidin-3-yl)-5-((3-(trans-3-(4-(6-((tetrahydro-2H-pyran-4-yl)amino)pyridin-2-yl)-1H-pyrazol-1-yl)cyclobutyl)propyl)amino)isoindoline-3-dione]: the IC50 was more than 1 µM in test [1] (setting [3]), 0.1 to 1 µM in test [1] (setting [4]), more than 1 µM in test [2] (setting [5]) and 0.01 to 0.1 µM in test [2] (setting [6]).
As for `Cc1nn([C@H]2C[C@@H](CCCNc3ccc4c(c3)C(=O)N(C3CCC(=O)NC3=O)C4=O)C2)cc1-c1cnc2ccc(C3CCOCC3)cc2n1` (stereo partly drawn) [GS-223, 2-(2,6-Dioxopiperidin-3-yl)-5-((3-(cis-3-(3-methyl-4-(7-(tetrahydro-2H-pyran-4-yl)quinoxalin-2-yl)-1H-pyrazol-1-yl)cyclobutyl)propyl)amino)isoindoline-1,3-dione], the IC50 in test [1] (setting [3]), in test [1] (setting [4]), in test [2] (setting [5]) and in test [2] (setting [6]) was less than 0.01 µM throughout.
Consider `CN1CCC(c2ccc3ncc(-c4cnn([C@H]5C[C@H](CCCNc6ccc7c(c6)C(=O)N(C6CCC(=O)NC6=O)C7=O)C5)c4)nc3c2)CC1` (stereo partly drawn) [GS-224, 2-(2,6-Dioxopiperidin-3-yl)-5-((3-(trans-3-(4-(7-(1-methylpiperidin-4-yl)quinoxalin-2-yl)-1H-pyrazol-1-yl)cyclobutyl)propyl)amino)isoindoline-1,3-dione], for which the IC50 was 0.1 to 1 µM in test [1] (setting [3]), 0.01 to 0.1 µM in test [1] (setting [4]), 0.1 to 1 µM in test [2] (setting [5]) and less than 0.01 µM in test [2] (setting [6]).
As for `O=C1CCC(N2Cc3ccc(CCCCC4CC(n5cc(-c6cnc7ccccc7n6)cn5)C4)cc3C2=O)C(=O)N1` (stereo not drawn) [GS-225, 3-(1-Oxo-6-(4-(3-(4-(quinoxalin-2-yl)-1H-pyrazol-1-yl)cyclobutyl)butyl)isoindolin-2-yl)piperidine-2,6-dione], the IC50 in test [1] (setting [3]) was 0.1 to 1 µM; in test [1] (setting [4]), 0.01 to 0.1 µM; in test [2] (setting [5]), more than 1 µM; in test [2] (setting [6]), 0.01 to 0.1 µM.
As for `O=C1CCC(N2Cc3cc(CCCCC4CC(n5cc(-c6cnc7ccccc7n6)cn5)C4)ccc3C2=O)C(=O)N1` (stereo not drawn) [GS-226, 3-(1-Oxo-5-(4-(3-(4-(quinoxalin-2-yl)-1H-pyrazol-1-yl)cyclobutyl)butyl)isoindolin-2-yl)piperidine-2,6-dione], the IC50 is 0.1 to 1 µM in test [1] (setting [3]), 0.1 to 1 µM in test [1] (setting [4]), more than 1 µM in test [2] (setting [5]) and more than 1 µM in test [2] (setting [6]).
On to `O=C1CCC(N2C(=O)c3ccc(NCCC[C@H]4C[C@@H](n5cc(-c6cnc7ccc(N8CCOCC8)cc7n6)c(C6CC6)n5)C4)cc3C2=O)C(=O)N1` (stereo partly drawn) [GS-227, 5-((3-(cis-3-(3-Cyclopropyl-4-(7-morpholinoquinoxalin-2-yl)-1H-pyrazol-1-yl)cyclobutyl)propyl)amino)-2-(2,6-dioxopiperidin-3-yl)isoindoline-1,3-dione], for which the IC50 in test [1] (setting [3]), in test [1] (setting [4]), in test [2] (setting [5]) and in test [2] (setting [6]) was less than 0.01 µM in each case.
In the case of `O=C1CCC(N2C(=O)c3ccc(NCCC[C@H]4C[C@H](n5cc(-c6cnc7ccc(CN8CCNCC8)cc7n6)c(C6CC6)n5)C4)cc3C2=O)C(=O)N1` (stereo partly drawn) [GS-228, 5-((3-(trans-3-(3-Cyclopropyl-4-(7-(piperazin-1-ylmethyl)quinoxalin-2-yl)-1H-pyrazol-1-yl)cyclobutyl)propyl)amino)-2-(2,6-dioxopiperidin-3-yl)isoindoline-1,3-dione], the IC50 in test [1] (setting [3]), in test [1] (setting [4]), in test [2] (setting [5]) and in test [2] (setting [6]) was less than 0.01 µM each time.
For `O=C1CCC(N2C(=O)c3ccc(NCCC[C@H]4C[C@H](n5cc(-c6cnc7ccc(OC8CCNCC8)cc7n6)c(C6CC6)n5)C4)cc3C2=O)C(=O)N1` (stereo partly drawn) [GS-229, 5-((3-(trans-3-(3-Cyclopropyl-4-(7-(piperidin-4-yloxy)quinoxalin-2-yl)-1H-pyrazol-1-yl)cyclobutyl)propyl)amino)-2-(2,6-dioxopiperidin-3-yl)isoindoline-1,3-dione], the IC50 in test [1] (setting [3]) is 0.01 to 0.1 µM; in test [1] (setting [4]), less than 0.01 µM; in test [2] (setting [5]) it was 0.01 to 0.1 µM; in test [2] (setting [6]), less than 0.01 µM.
Consider `O=C1CCC(N2C(=O)c3ccc(NCCC[C@H]4C[C@H](n5cc(-c6cnc7ccc(CN8CCOCC8)cc7n6)c(C6CC6)n5)C4)cc3C2=O)C(=O)N1` (stereo partly drawn) [GS-230, 5-((3-(trans-3-(3-Cyclopropyl-4-(7-(morpholinomethyl)quinoxalin-2-yl)-1H-pyrazol-1-yl)cyclobutyl)propyl)amino)-2-(2,6-dioxopiperidin-3-yl)isoindoline-1,3-dione], for which the IC50 was 0.01 to 0.1 µM in test [1] (setting [3]), less than 0.01 µM in test [1] (setting [4]), 0.01 to 0.1 µM in test [2] (setting [5]) and less than 0.01 µM in test [2] (setting [6]).
Take `O=C1CCC(N2C(=O)c3ccc(NCCC[C@H]4C[C@@H](n5cc(-c6cnc7ccc(C8CCNCC8)cc7n6)c(C6CC6)n5)C4)cc3C2=O)C(=O)N1` (stereo partly drawn) [GS-231, 5-((3-(cis-3-(3-Cyclopropyl-4-(7-(piperidin-4-yl)quinoxalin-2-yl)-1H-pyrazol-1-yl)cyclobutyl)propyl)amino)-2-(2,6-dixopiperidin-3-yl)isoindoline-1,3-dione]: the IC50 was 0.01 to 0.1 µM in test [1] (setting [3]), less than 0.01 µM in test [1] (setting [4]), 0.01 to 0.1 µM in test [2] (setting [5]) and less than 0.01 µM in test [2] (setting [6]).
In the case of `O=C1CCC(N2C(=O)c3ccc(NCCC[C@H]4C[C@H](n5cc(-c6ccccc6)cn5)C4)cc3C2=O)C(=O)N1` (stereo partly drawn) [GS-232, 2-(2,6-Dioxopiperidin-3-yl)-5-((3-(trans-3-(4-phenyl-1H-pyrazol-1-yl)cyclobutyl)propyl)amino)isoindoline-1,3-dione], the IC50 in test [1] (setting [3]) is 0.1 to 1 µM; in test [1] (setting [4]), 0.1 to 1 µM; in test [2] (setting [5]) it was 0.1 to 1 µM; in test [2] (setting [6]), more than 1 µM.

The record behind these values is patent publication US20240050428A1 (Cullgen (Shanghai), Inc., priority 2020, published 2024).
